Data reported in patent publication US20030232986A1, “Inhibitors of caspases” (Vertex Pharmaceuticals Incorporated, priority 1998, published 2003).
Read-outs that look alike come from different tables or passages of the source. Where a SMILES comes first, the peptide text is derived from it. [ ]: non-standard residue; d: D form. The star is where a group is joined. Isovaleryl = CC(C)CC(=O)*; 4Abz = Nc1ccc(C(=O)O)cc1; Bz = O=C(c1ccccc1)*

How the values were obtained:
[1] = system: Human whole blood, IL-1β production; experiment: Whole blood assay for IL-1β production; type: cell-based; settings: LPS-stimulated whole blood, IL-1β by ELISA
Description: The whole blood assay is a simple method for measuring the production of IL-1β (or other cytokines) and the activity of potential inhibitors. The complexity of this assay system, with its full complement of lymphoid and inflammatory cell types, spectrum of plasma proteins and red blood cells is an ideal in vitro representation of human in vivo physiologic conditions.
Set incubator or water bath at 30° C. Aliquot 0.25 ml of blood into 1.5 ml eppendorf tubes. Note: be sure to invert the whole blood sample tubes after every two aliquots. Differences in replicates may result if the cells sediment and are not uniformly suspended. Use of a positive displacement pipette will also minimize differences between replicate aliquots.
Prepare drug dilutions in sterile pyrogen-free saline by serial dilution. A dilution series which brackets the apparent Ki for a test compound determined in an ICE inhibition assay is generally used for the primary compound screen. For extremely hydrophobic compounds, prepare compound dilutions in fresh plasma obtained from the same blood donor or in PBS-containing 5% DMSO to enhance solubility.
Add 25 μl test compound dilution or vehicle control and gently mix the sample. Then add 5.0 μl LPS solution (250 ng/ml stocked prepared fresh: 5.0 ng/ml final concentration LPS), and mix again. Incubate the tubes at […] in a water bath for 16-18 hr with occasional mixing. Alternatively, the tubes can be placed in a rotator set at 4 rpm for the same incubation period. This assay should be set up in duplicate or triplicate with the following controls: negative control—no LPS; positive control—no test inhibitor; vehicle control—the highest concentration of DMSO or compound solvent used in the experiment. Additional saline is added to all control tubes to normalize volumes for both control and experimental whole blood test samples.
After the incubation period, whole blood samples are centrifuged for 10 minutes at ^˜2000 rpm in the microfuge, plasma is transferred to a fresh microfuge tube and centrifuged at 1000×g to pellet residual platelets if necessary. Plasma samples may be stored frozen at −70° C. prior to assay for cytokine levels by ELISA.
R & D Systems (614 McKinley Place N.E. Minneapolis, Minn. 55413) Quantikine kits may be used for measurement of IL-1β and TNF-α. The assays are performed according to the manufacture's directions. IL-1β levels of ^˜1-5 ng/ml in positive controls among a range of individuals may be observed. A 1:200 dilution of plasma for all samples is usually sufficient for experiments for ELISA results to fall on the linear range of the ELISA standard curves. It may be necessary to optimize standard dilutions if you observe differences in the whole blood assay. Nerad, J. L. et al., J. Leukocyte Biol., 52, pp. 687-692 (1992).

Caspase-1 = molecular target: T1, Caspase-1 (Homo sapiens, UniProt P29466); experiment: Caspase-1 enzyme inhibition (Ki); type: biochemical
T1 sequence (P29466 120-297 limits assumed): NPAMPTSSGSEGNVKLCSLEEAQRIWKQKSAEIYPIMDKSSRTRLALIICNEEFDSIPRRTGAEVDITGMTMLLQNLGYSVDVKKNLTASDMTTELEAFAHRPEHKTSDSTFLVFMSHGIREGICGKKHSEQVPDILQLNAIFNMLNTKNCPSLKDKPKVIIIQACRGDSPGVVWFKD
T1 sequence (P29466 317-404 limits assumed): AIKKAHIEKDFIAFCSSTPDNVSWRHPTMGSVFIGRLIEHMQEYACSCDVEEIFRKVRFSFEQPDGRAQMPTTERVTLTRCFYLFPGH
Procedure, shortened: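 Ki obtained by fitting rate versus inhibitor concentration to the Morrison tight-binding equation for competitive inhibitors, with pNA release read at 405 nm at 37 °C. Substrate Suc-YVAD-pNA (80 μM final) added after 15 min enzyme–inhibitor preincubation in Tris pH 7.5 buffer with DTT and CHAPS.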

[2] = system: Human Peripheral Blood Mononuclear Cells (PBMC), mature IL-1β; experiment: PBMC cell assay: IL-1β assay with human peripheral blood mononuclear cells; type: cell-based; settings: LPS-stimulated human PBMC, mature IL-1β in supernatant by ELISA
From the text: IL-1β Assay with a Mixed Population of Human Peripheral Blood Mononuclear Cells (PBMC) or Enriched Adherent Mononuclear Cells
Processing of pre-IL-1β by ICE can be measured in cell culture using a variety of cell sources. Human PBMC obtained from healthy donors provides a mixed population of lymphocyte subtypes and mononuclear cells that produce a spectrum of interleukins and cytokines in response to many classes of physiological stimulators. Adherent mononuclear cells from PBMC provides an enriched source of normal monocytes for selective studies of cytokine production by activated cells.
An initial dilution series of test compound in DMSO or ethanol is prepared, with a subsequent dilution into RPMI-10% FBS media (containing 2 mM L-glutamine, 10 mM HEPES, 50 U and 50 ug/ml pen/strep) respectively to yield drugs at 4× the final test concentration containing 0.4% DMSO or 0.4% ethanol. The final concentration of DMSO is 0.1% for all drug dilutions. A concentration titration which brackets the apparent Ki for a test compound determined in an ICE inhibition assay is generally used for the primary compound screen.
Generally 5-6 compound dilutions are tested and the cellular component of the assay is performed in duplicate, with duplicate ELISA determinations on each cell culture supernatant.
Buffy coat cells isolated from one pint human blood (yielding 40-45 ml final volume plasma plus cells) are diluted with media to 80 ml and LeukoPREP separation tubes (Becton Dickinson) are each overlaid with 10 ml of cell suspension. After 15 min centrifugation at 1500-1800×g, the plasma/media layer is aspirated and then the mononuclear cell layer is collected with a Pasteur pipette and transferred to a 15 ml conical centrifuge tube (Corning). Media is added to bring the volume to 15 ml, gently mix the cells by inversion and centrifuge at 300×g for 15 min. The PBMC pellet is resuspended in a small volume of media, the cells are counted and adjusted to 6×10^6 cells/ml.
For the cellular assay, 1.0 ml of the cell suspension is added to each well of a 24-well flat bottom tissue culture plate (Corning), 0.5 ml test compound dilution and 0.5 ml LPS solution (Sigma #L-3012; 20 ng/ml solution prepared in complete RPMI media; final LPS concentration 5 ng/ml). The 0.5 ml additions of test compound and LPS are usually sufficient to mix the contents of the wells. Three control mixtures are run per experiment, with either LPS alone, solvent vehicle control, and/or additional media to adjust the final culture volume to 2.0 ml. The cell cultures are incubated for 16-18 hr at 37° C. in the presence of 5% CO2.
At the end of the incubation period, cells are harvested and transferred to 15 ml conical centrifuge tubes. After centrifugation for 10 min at 200×g, supernatants are harvested and transferred to 1.5 ml Eppendorf tubes. It may be noted that the cell pellet may be utilized for a biochemical evaluation of pre-IL-1β and/or mature IL-1β content in cytosol extracts by Western blotting or ELISA with pre-IL-1β specific antisera.
PBMC are isolated and prepared as described above. Media (1.0 ml) is first added to wells followed by 0.5 ml of the PBMC suspension. After a one hour incubation, plates are gently shaken and nonadherent cells aspirated from each well. Wells are then gently washed three times with 1.0 ml of media and final resuspended in 1.0 ml media. The enrichment for adherent cells generally yields 2.5-3.0×10^5 cells per well. The addition of test compounds, LPS, cell incubation conditions and processing of supernatants proceeds as described above.
Quantikine kits (R&D Systems) may be used for the measurement of mature IL-1β. Assays are performed according to the manufacturer's directions. Mature IL-1β levels of about 1-3 ng/ml in both PBMC and adherent mononuclear cell positive controls are observed. […]

[3] = substrate Suc-YVAD-pNA 80 μM, 37° C., pH 7.5

IC50 [1] | Ki (Caspase-1) | Ki (Caspase-1; [3]) | Compound | IC50 [2]
< 2500 nM | 10 to 1000 nM | 10 to 1000 nM | CC(C)[C@H](NC(=O)c1ccccc1C(=O)c1ccccc1)C(=O)N1CCC[C@H]1C(=O)N[C@H](C=O)CC(=O)O [Example 5u] | 1000 to 2000 nM
< 2500 nM | 10 to 1000 nM | 10 to 1000 nM | CC(C)[C@H](NC(=O)c1cnc2ccccc2n1)C(=O)N1CCC[C@H]1C(=O)N[C@H](C=O)CC(=O)O [Example 5w] | 500 to 1000 nM
< 2500 nM | < 10 nM | < 10 nM | CC(C)[C@H](NC(=O)c1ccccc1C(=O)N[C@@H](C)c1ccccc1)C(=O)N1CCC[C@H]1C(=O)N[C@H](C=O)CC(=O)O [Example 5x] | 500 to 1000 nM
2500 to 7500 nM | < 10 nM | < 10 nM | CCCCCCOc1ccc(C(=O)N[C@H](C(=O)N2CCC[C@H]2C(=O)N[C@H](C=O)CC(=O)O)C(C)C)cc1 [Example 5y] | 500 to 1000 nM
> 7500 nM | < 10 nM | < 10 nM | CCCCCCc1ccc(C(=O)N[C@H](C(=O)N2CCC[C@H]2C(=O)N[C@H](C=O)CC(=O)O)C(C)C)cc1 [Example 5z] | 500 to 1000 nM
2500 to 7500 nM |  | < 10 nM | C[C@H](NC(=O)c1cccc2ccccc12)C(=O)N1CCC[C@H]1C(=O)N[C@H](C=O)CC(=O)O [Example 7a] | > 2000 nM
< 2500 nM |  | 10 to 1000 nM | C[C@H](NC(=O)c1ccccc1)C(=O)N1CCC[C@H]1C(=O)N[C@H](C=O)CC(=O)O [Example 7b] (Bz-Ala-Pro-Asp-aldehyde) | 500 to 1000 nM
> 7500 nM |  | 10 to 1000 nM | CC(=O)Nc1ccc(C(=O)N[C@@H](C)C(=O)N2CCC[C@H]2C(=O)N[C@H](C=O)CC(=O)O)cc1 [Example 7e] (Ac-[4Abz]APD-aldehyde) | > 2000 nM
2500 to 7500 nM |  | < 10 nM | C[C@H](NC(=O)c1ccc(N(C)C)c2ccccc12)C(=O)N1CCC[C@H]1C(=O)N[C@H](C=O)CC(=O)O [Example 7g] | < 500 nM
< 2500 nM |  | 10 to 1000 nM | C[C@H](NC(=O)c1ccc(Cl)c(N)c1)C(=O)N1CCC[C@H]1C(=O)N[C@H](C=O)CC(=O)O [Example 7h] | 500 to 1000 nM
< 2500 nM |  | 10 to 1000 nM | COc1cc(C(=O)N[C@@H](C)C(=O)N2CCC[C@H]2C(=O)N[C@H](C=O)CC(=O)O)cc(OC)c1OC [Example 7k] | 500 to 1000 nM
< 2500 nM |  | 10 to 1000 nM | COc1cc(C(=O)N[C@@H](C)C(=O)N2CCC[C@H]2C(=O)N[C@H](C=O)CC(=O)O)ccc1N [Example 7l] | 500 to 1000 nM
2500 to 7500 nM |  | 10 to 1000 nM | COc1ccc(C(=O)N[C@@H](C)C(=O)N2CCC[C@H]2C(=O)N[C@H](C=O)CC(=O)O)cc1F [Example 7m] | 500 to 1000 nM
< 2500 nM |  | 10 to 1000 nM | C[C@H](NC(=O)c1cccc(N(C)C)c1)C(=O)N1CCC[C@H]1C(=O)N[C@H](C=O)CC(=O)O [Example 7n] | 500 to 1000 nM
< 2500 nM |  | < 10 nM | COc1cc(C(=O)N[C@@H](C)C(=O)N2CCC[C@H]2C(=O)N[C@H](C=O)CC(=O)O)cc(Cl)c1O [Example 7o] | < 500 nM
2500 to 7500 nM |  | < 10 nM | COc1ccc(C(=O)N[C@@H](C)C(=O)N2CCC[C@H]2C(=O)N[C@H](C=O)CC(=O)O)cc1C [Example 7p] | > 2000 nM
< 2500 nM |  | 10 to 1000 nM | C[C@H](NC(=O)c1ccc2c(c1)OCO2)C(=O)N1CCC[C@H]1C(=O)N[C@H](C=O)CC(=O)O [Example 7q] | > 2000 nM
2500 to 7500 nM |  | 10 to 1000 nM | C[C@H](NC(=O)c1ccc(N(C)C)cc1)C(=O)N1CCC[C@H]1C(=O)N[C@H](C=O)CC(=O)O [Example 7s] | 500 to 1000 nM
2500 to 7500 nM |  | 10 to 1000 nM | Cc1cc(C(=O)N[C@@H](C)C(=O)N2CCC[C@H]2C(=O)N[C@H](C=O)CC(=O)O)ccc1N [Example 7t] | > 2000 nM
2500 to 7500 nM |  | 10 to 1000 nM | C[C@H](NC(=O)c1ccc(C(N)=O)cc1)C(=O)N1CCC[C@H]1C(=O)N[C@H](C=O)CC(=O)O [Example 7u] | > 2000 nM
< 2500 nM |  | 10 to 1000 nM | CC(C)CC(=O)Nc1ccc(C(=O)N[C@@H](C)C(=O)N2CCC[C@H]2C(=O)N[C@H](C=O)CC(=O)O)cc1 [Example 7v] ({Isovaleryl-4Abz}-Ala-Pro-Asp-aldehyde) | > 2000 nM
< 2500 nM |  | < 10 nM | Cc1cc(C(=O)N[C@@H](C)C(=O)N2CCC[C@H]2C(=O)N[C@H](C=O)CC(=O)O)cc(Cl)c1N [Example 7w] | 1000 to 2000 nM
> 7500 nM |  | 10 to 1000 nM | C[C@H](NC(=O)c1ccc(NS(C)(=O)=O)cc1)C(=O)N1CCC[C@H]1C(=O)N[C@H](C=O)CC(=O)O [Example 7x] | > 2000 nM
> 7500 nM |  | 10 to 1000 nM | C[C@H](NC(=O)c1ccc(N)c(OC(F)(F)F)c1)C(=O)N1CCC[C@H]1C(=O)N[C@H](C=O)CC(=O)O [Example 7y] | > 2000 nM
